Test [1] in a line: Displacement of Biocillin FL from Streptococcus pneumoniae 3665 PBP3.
In test [2] the test system is Streptococcus pneumoniae. Description: Antimicrobial activity against penicillin-sensitive Streptococcus pneumoniae 1076 by CLSI method. The format is functional.
For test [3], the target named is T1, Penicillin-binding protein 2x (Streptococcus pneumoniae serotype 4 (strain ATCC BAA-334 / TIGR4), UniProt P14677).
T1 sequence (P14677 whole entry): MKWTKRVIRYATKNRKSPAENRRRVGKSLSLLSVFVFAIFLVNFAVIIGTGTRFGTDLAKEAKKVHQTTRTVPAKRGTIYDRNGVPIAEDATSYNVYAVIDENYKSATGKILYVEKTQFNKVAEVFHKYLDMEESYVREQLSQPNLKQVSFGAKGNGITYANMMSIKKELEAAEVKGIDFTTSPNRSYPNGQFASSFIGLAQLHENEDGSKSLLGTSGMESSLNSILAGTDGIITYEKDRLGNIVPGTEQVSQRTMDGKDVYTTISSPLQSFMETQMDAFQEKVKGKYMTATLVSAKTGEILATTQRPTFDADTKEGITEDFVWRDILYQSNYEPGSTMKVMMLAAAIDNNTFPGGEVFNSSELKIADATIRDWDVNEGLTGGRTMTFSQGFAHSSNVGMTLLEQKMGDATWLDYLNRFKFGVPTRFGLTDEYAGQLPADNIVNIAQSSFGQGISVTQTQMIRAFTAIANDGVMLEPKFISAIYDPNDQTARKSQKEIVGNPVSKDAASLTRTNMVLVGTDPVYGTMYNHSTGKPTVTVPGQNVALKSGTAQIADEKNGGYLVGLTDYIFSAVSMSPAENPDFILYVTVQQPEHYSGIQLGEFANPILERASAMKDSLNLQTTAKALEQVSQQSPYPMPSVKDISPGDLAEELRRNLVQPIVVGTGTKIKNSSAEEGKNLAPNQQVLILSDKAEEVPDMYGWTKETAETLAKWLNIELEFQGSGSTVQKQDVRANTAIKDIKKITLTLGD
Description: Displacement of Biocillin FL from Streptococcus pneumoniae 3413 PBP2X.

For test [4], the target named is T1, Penicillin-binding protein 2x. Description: Displacement of Biocillin FL from Streptococcus pneumoniae 3009 PBP2X.
Test [5] has as its target T2, Penicillin-binding protein 1A (Streptococcus pneumoniae serotype 4 (strain ATCC BAA-334 / TIGR4), UniProt Q04707).
T2 sequence (Q04707 whole entry): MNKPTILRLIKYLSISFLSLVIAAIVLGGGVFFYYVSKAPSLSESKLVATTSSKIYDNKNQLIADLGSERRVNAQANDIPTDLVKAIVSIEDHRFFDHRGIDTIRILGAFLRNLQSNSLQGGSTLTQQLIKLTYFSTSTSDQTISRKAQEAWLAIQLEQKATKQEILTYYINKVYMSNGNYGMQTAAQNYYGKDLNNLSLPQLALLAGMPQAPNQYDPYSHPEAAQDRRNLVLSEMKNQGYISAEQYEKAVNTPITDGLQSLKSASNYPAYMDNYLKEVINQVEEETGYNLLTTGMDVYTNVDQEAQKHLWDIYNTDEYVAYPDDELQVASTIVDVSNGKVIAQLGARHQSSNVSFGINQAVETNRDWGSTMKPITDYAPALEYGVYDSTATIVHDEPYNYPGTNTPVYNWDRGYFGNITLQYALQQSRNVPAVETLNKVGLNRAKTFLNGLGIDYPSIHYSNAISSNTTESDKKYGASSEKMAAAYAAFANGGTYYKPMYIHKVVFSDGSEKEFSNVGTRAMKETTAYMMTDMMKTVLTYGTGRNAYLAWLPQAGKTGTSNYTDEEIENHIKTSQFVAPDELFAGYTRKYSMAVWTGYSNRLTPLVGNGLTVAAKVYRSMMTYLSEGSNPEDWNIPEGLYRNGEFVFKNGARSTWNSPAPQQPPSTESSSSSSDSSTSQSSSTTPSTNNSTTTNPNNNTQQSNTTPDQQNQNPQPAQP
The test is described as follows: Displacement of Biocillin FL from Streptococcus pneumoniae 1077 PBP1A.

A short description of test [6]: Displacement of Biocillin FL from Streptococcus pneumoniae 3009 PBP2A.
The nature of test [7]: Displacement of Biocillin FL from Streptococcus pneumoniae 1076 PBP3.
For test [8], the target named is T3, Penicillin-binding protein 2B (Streptococcus pneumoniae serotype 4 (strain ATCC BAA-334 / TIGR4), UniProt P0A3M5).
T3 sequence (P0A3M5 whole entry): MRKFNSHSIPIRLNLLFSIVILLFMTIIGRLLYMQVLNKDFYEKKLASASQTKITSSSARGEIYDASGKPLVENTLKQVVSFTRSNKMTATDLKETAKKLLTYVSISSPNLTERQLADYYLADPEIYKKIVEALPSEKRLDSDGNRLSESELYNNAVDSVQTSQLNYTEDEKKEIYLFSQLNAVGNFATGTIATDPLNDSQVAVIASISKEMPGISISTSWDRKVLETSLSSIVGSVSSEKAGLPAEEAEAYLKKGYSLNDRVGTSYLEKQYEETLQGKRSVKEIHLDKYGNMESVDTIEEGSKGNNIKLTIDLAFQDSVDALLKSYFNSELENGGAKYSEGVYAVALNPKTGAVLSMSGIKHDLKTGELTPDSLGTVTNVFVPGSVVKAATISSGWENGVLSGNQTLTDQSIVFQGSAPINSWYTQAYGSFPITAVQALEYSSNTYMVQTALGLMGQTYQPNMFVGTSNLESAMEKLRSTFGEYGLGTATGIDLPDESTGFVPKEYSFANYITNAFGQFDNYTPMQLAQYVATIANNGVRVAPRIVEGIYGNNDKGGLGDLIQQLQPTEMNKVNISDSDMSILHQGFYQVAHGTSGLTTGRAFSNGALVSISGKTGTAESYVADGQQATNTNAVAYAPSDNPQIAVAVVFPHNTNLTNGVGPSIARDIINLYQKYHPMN
The test is described as follows: Displacement of Biocillin FL from Streptococcus pneumoniae 3243 PBP2B.

A short description of test [9]: Displacement of Biocillin FL from Streptococcus pneumoniae 24 PBP2X.
The target in test [10] is T3, Penicillin-binding protein 2B. Description: Displacement of Biocillin FL from Streptococcus pneumoniae 1077 PBP2B.
For test [11], the target named is T1, Penicillin-binding protein 2x. The test is described as follows: Displacement of Biocillin FL from Streptococcus pneumoniae 3243 PBP2X.
In test [12] the target is T2, Penicillin-binding protein 1A. The test is described as follows: Displacement of Biocillin FL from Streptococcus pneumoniae 3243 PBP1A.
The target in test [13] is T3, Penicillin-binding protein 2B. The test is described as follows: Displacement of Biocillin FL from Streptococcus pneumoniae 1076 PBP2B.
Test [14] in a line: Displacement of Biocillin FL from Streptococcus pneumoniae 3413 PBP1B.
Test [15] concerns the target T2, Penicillin-binding protein 1A. Description: Displacement of Biocillin FL from Streptococcus pneumoniae 24 PBP1A.
The subject of test [16] is Streptococcus pneumoniae. Description: Antimicrobial activity against penicillin-sensitive Streptococcus pneumoniae 1077 by CLSI method. The format is functional.
The target of test [17] is T2, Penicillin-binding protein 1A. Description: Displacement of Biocillin FL from Streptococcus pneumoniae 3413 PBP1A.
In test [18] the test system is Streptococcus pneumoniae. Description: Antimicrobial activity against penicillin-resistant Streptococcus pneumoniae 3413 by CLSI method. It is filed as functional.
Test [19] has as its target T1, Penicillin-binding protein 2x. The test is described as follows: Displacement of Biocillin FL from Streptococcus pneumoniae 1076 PBP2X.
A short description of test [20]: Displacement of Biocillin FL from Streptococcus pneumoniae 1077 PBP1B.
The target of test [21] is T2, Penicillin-binding protein 1A. The test is described as follows: Displacement of Biocillin FL from Streptococcus pneumoniae 3665 PBP1A.

Each structure is given as a SMILES string. In brackets after ≈: the same amount, converted by molar mass.

For orientation: IC50 means the concentration that inhibits the measured activity by half. What is called MIC is the lowest concentration that inhibits growth of the organism. A lower MIC goes with a more susceptible organism. For `CC1(C)S[C@@H]2[C@H](NC(=O)[C@H](N)c3ccc(O)cc3)C(=O)N2[C@H]1C(=O)O` [AMOXICILLIN], the IC50 is 0.019 µg/mL (≈ 0.052 µM) in test [1]; 170 nM in test [3]; 21.9 nM in test [4]; 46.5 nM in [5]; 0.08 µg/mL (≈ 0.219 µM) in test [6]; 0.051 µg/mL (≈ 0.14 µM) in test [7]. Further, the IC50 was 79.4 nM in [8]; 0.117 µg/mL (≈ 0.32 µM) in test [9]; 82.1 nM in test [10]; 49.3 nM in [11]; 161 nM in test [12]; 151 nM in test [13]. Moreover, the IC50 in test [14] is 0.035 µg/mL (≈ 0.0958 µM); in test [15], 10.9 nM; in test [17], 339 nM; in test [19] it was 101 nM; in test [20] it was 0.006 µg/mL (≈ 0.0164 µM); in test [21], 183 nM. The MIC against Streptococcus pneumoniae [2] is 0.016 µg/mL (≈ 0.0438 µM); against Streptococcus pneumoniae [16], 0.016 µg/mL (≈ 0.0438 µM); against Streptococcus pneumoniae [18] it was 2 µg/mL (≈ 5.47 µM).

With `CO/N=C(\C(=O)N[C@@H]1C(=O)N2C(C(=O)O)=C(COC(N)=O)CS[C@H]12)c1ccco1` [CEFUROXIME], the IC50 in test [1] was 0.047 µg/mL (≈ 0.111 µM); in test [3] it was 9.43 nM; in test [4], 0.0943 nM; in [5], 386 nM; in test [6], 0.008 µg/mL (≈ 0.0189 µM); in test [7], 0.021 µg/mL (≈ 0.0495 µM). For the same compound, the IC50 in test [8] was 54.2 nM; in [9], 0.198 µg/mL (≈ 0.467 µM); in [10] it was 2740 nM; in [11], 33 nM; in [12] it was 14.1 nM; in test [13], 403 nM. For the same compound, the IC50 in test [14] was 0.032 µg/mL (≈ 0.0754 µM); in test [15], 9.43 nM; in test [17], 2.36 nM; in [19], 4.71 nM; in [20] it was 0.008 µg/mL (≈ 0.0189 µM); in [21], 4.71 nM. The MIC in the test with Streptococcus pneumoniae [2] came to 0.03 µg/mL (≈ 0.0707 µM); in the test with Streptococcus pneumoniae [16], 0.03 µg/mL (≈ 0.0707 µM); in the test with Streptococcus pneumoniae [18] it was 4 µg/mL (≈ 9.43 µM).

Consider `C[C@@H](O)[C@H]1C(=O)N2C(C(=O)O)=C([C@H]3CCCO3)S[C@H]12` [FAROPENEM], for which the IC50 in test [1] is 0.005 µg/mL (≈ 0.0175 µM); in test [3] it was 1520 nM; in [4] it was 214 nM; in test [5], 52.6 nM; in test [6] it was 0.016 µg/mL (≈ 0.0561 µM); in test [7] it was 0.015 µg/mL (≈ 0.0526 µM). Besides, the IC50 was 45.6 nM in test [8]; 0.758 µg/mL (≈ 2.66 µM) in test [9]; 28 nM in [10]; 137 nM in [11]; 14 nM in test [12]; 45.6 nM in test [13]. For the same compound, the IC50 in [14] was 0.019 µg/mL (≈ 0.0666 µM); in [15], 31.5 nM; in test [17], 56.1 nM; in test [19], 221 nM; in test [20] it was 0.005 µg/mL (≈ 0.0175 µM); in test [21], 105 nM. Moreover, the minimum inhibitory concentration (MIC) with Streptococcus pneumoniae [2] was found to be 0.03 µg/mL (≈ 0.105 µM); against Streptococcus pneumoniae [16], 0.03 µg/mL (≈ 0.105 µM); against Streptococcus pneumoniae [18], 1 µg/mL (≈ 3.5 µM).

As for `C[C@@H](O)[C@H]1C(=O)N2C(C(=O)O)=C(SCCNC=N)C[C@H]12` [IMIPENEM ANHYDROUS], the IC50 is 0.171 µg/mL (≈ 0.571 µM) in test [1]; 1430 nM in test [3]; 334 nM in [4]; 174 nM in test [5]; 0.054 µg/mL (≈ 0.18 µM) in [6]; 0.032 µg/mL (≈ 0.107 µM) in test [7]. Further, the IC50 was 220 nM in test [8]; 2.048 µg/mL (≈ 6.84 µM) in test [9]; 154 nM in test [10]; 635 nM in test [11]; 608 nM in test [12]; 237 nM in [13]. The half-maximal inhibitory concentration (IC50) is 0.316 µg/mL (≈ 1.06 µM) in test [14]; 1470 nM in test [15]; 2070 nM in test [17]; 197 nM in [19]; 0.106 µg/mL (≈ 0.354 µM) in [20]; 965 nM in test [21]. Besides, the MIC against Streptococcus pneumoniae [2] came to 0.008 µg/mL (≈ 0.0267 µM); in the test with Streptococcus pneumoniae [16], 0.008 µg/mL (≈ 0.0267 µM); against Streptococcus pneumoniae [18], 0.125 µg/mL (≈ 0.418 µM).

With `CC1(C)S[C@@H]2[C@H](NC(=O)Cc3ccccc3)C(=O)N2[C@H]1C(=O)O` [PENICILLIN G], the IC50 was 0.01 µg/mL (≈ 0.0299 µM) in test [1]; 1920 nM in test [3]; 32.9 nM in test [4]; 26.9 nM in [5]; 0.011 µg/mL (≈ 0.0329 µM) in test [6]; 0.016 µg/mL (≈ 0.0478 µM) in test [7]. Besides, the IC50 is 182 nM in test [8]; 0.323 µg/mL (≈ 0.966 µM) in test [9]; 111 nM in [10]; 20.9 nM in test [11]; 23.9 nM in test [12]; 179 nM in test [13]. In addition, the 50% inhibitory concentration (IC50) was 0.205 µg/mL (≈ 0.613 µM) in test [14]; 23.9 nM in [15]; 59.8 nM in test [17]; 29.9 nM in test [19]; 0.005 µg/mL (≈ 0.015 µM) in test [20]; 92.7 nM in [21]. Moreover, the MIC against Streptococcus pneumoniae [2] came to 0.03 µg/mL (≈ 0.0897 µM); with Streptococcus pneumoniae [16], 0.03 µg/mL (≈ 0.0897 µM); with Streptococcus pneumoniae [18], 4 µg/mL (≈ 12 µM).
